Reference: PubChem BioAssay (NCI)
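Five compound concentrations were applied to cells in 96-well plates for 48 hours; endpoints were derived by simple linear interpolation of the resulting dose-response curve. TGI denotes the concentration required for complete inhibition of growth.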

Columns and labels:
Assay in all cases: NCI tumour cell line growth inhibition, 48 h
[1] = test system: M19-MEL melanoma
[2] = test system: HCT-15 colon
[3] = test system: MDA-MB-435
[4] = test system: SK-MEL-5 melanoma
[5] = test system: HCT-116 colon
[6] = test system: MCF7 breast
[7] = test system: NCI-H460 lung
[8] = test system: OVCAR-8 ovarian
[9] = test system: RXF 393 renal
[10] = test system: SNB-19 CNS
[11] = test system: DMS 273 small cell lung
[12] = test system: RXF-631 renal
[13] = test system: MDA-MB-231 breast
[14] = test system: MALME-3M melanoma
[15] = test system: BT-549 breast
[16] = test system: LOX IMVI melanoma
[17] = test system: NCI-H226 lung
[18] = test system: KM20L2 colon
[19] = test system: HS 578T breast
[20] = test system: CAKI-1 renal
[21] = test system: MDA-N
[22] = test system: SF-295 CNS
[23] = test system: HT29 colon
[24] = test system: NCI-H522 lung
[25] = test system: SK-OV-3 ovarian
[26] = test system: A498 renal
[27] = test system: DU-145 prostate
[28] = test system: OVCAR-3 ovarian
[29] = test system: SW-620 colon
[30] = test system: SNB-78 CNS
[31] = test system: EKVX NSCLC
[32] = test system: SN12C renal
[33] = test system: SK-MEL-28 melanoma
[34] = test system: A549 NSCLC
[35] = test system: K-562 leukemia
[36] = test system: CCRF-CEM leukemia
[37] = test system: SK-MEL-2 melanoma
[38] = test system: HOP-62 NSCLC
[39] = test system: NCI-H23 lung
[40] = test system: OVCAR-4 ovarian
[41] = test system: M14 melanoma
[42] = test system: COLO 205 colon
[43] = test system: DLD-1 colon
[44] = test system: SNB-75 CNS
[45] = test system: DMS 114 small cell lung
[46] = test system: HOP-18 NSCLC
[47] = test system: U251 CNS
[48] = test system: IGROV1 ovarian
[49] = test system: HL-60(TB) leukemia
[50] = test system: XF 498 CNS
[51] = test system: LXFL 529 NSCLC
[52] = test system: HCC-2998 colon
[53] = test system: PC-3 prostate
[54] = test system: T-47D breast
[55] = test system: OVCAR-5 ovarian
[56] = test system: 786-0 renal
[57] = test system: MOLT-4 leukemia
[58] = test system: UACC-257 melanoma
[59] = test system: HOP-92 NSCLC
[60] = test system: KM12 colon
[61] = test system: RPMI-8226 leukemia
[62] = test system: SF-539 CNS
[63] = test system: SR leukemia
[64] = test system: SF-268 CNS
[65] = test system: UACC-62 melanoma
[66] = test system: ACHN renal
[67] = test system: UO-31 renal
[68] = test system: TK-10 renal

CN(C)CCN1C(=O)c2cccc3cc([N+](=O)[O-])cc(c23)C1=O
TGI [1]: 1.84 µM | TGI [2]: 4.2 µM | TGI [3]: 4.66 µM | TGI [4]: 1.37 µM | TGI [5]: 6.7 µM | TGI [6]: 0.743 µM | TGI [7]: 0.384 µM | TGI [8]: 2.02 µM | TGI [9]: 0.923 µM | TGI [10]: 2.12 µM | TGI [11]: 0.557 µM | TGI [12]: 3.62 µM | TGI [13]: 14.6 µM | TGI [14]: 1.84 µM | TGI [15]: 7.62 µM | TGI [16]: 0.806 µM | TGI [17]: 0.436 µM | TGI [18]: 5.63 µM | TGI [19]: 4.65 µM | TGI [20]: 1.76 µM | TGI [21]: 10.5 µM | TGI [22]: 1.38 µM | TGI [23]: 2.8 µM | TGI [24]: 2.12 µM | TGI [25]: 0.806 µM | TGI [26]: 0.386 µM | TGI [27]: > 100 µM | TGI [28]: 6.27 µM | TGI [29]: 3.7 µM | TGI [30]: 15 µM | TGI [31]: 2.68 µM | TGI [32]: 1.69 µM | TGI [33]: 6.85 µM | TGI [34]: 0.397 µM | TGI [35]: 26.5 µM | TGI [36]: 0.798 µM | TGI [37]: 3.14 µM | TGI [38]: 0.779 µM | TGI [39]: 1.24 µM | TGI [40]: 6.37 µM | TGI [41]: 2.14 µM | TGI [42]: 9.56 µM | TGI [43]: 28.4 µM | TGI [44]: 1.05 µM | TGI [45]: 0.811 µM | TGI [46]: 6.4 µM | TGI [47]: 2 µM | TGI [48]: 4.49 µM | TGI [49]: > 45.3 µM | TGI [50]: 2 µM | TGI [51]: 2.8 µM | TGI [52]: 3.56 µM | TGI [53]: 3.49 µM | TGI [54]: 29.6 µM | TGI [55]: 5.24 µM | TGI [56]: 8.1 µM | TGI [57]: 2.04 µM | TGI [58]: 2.13 µM | TGI [59]: 1.12 µM | TGI [60]: 4.28 µM | TGI [61]: 10.2 µM | TGI [62]: 1.32 µM | TGI [63]: 97 µM | TGI [64]: 3.12 µM | TGI [65]: 1.03 µM

COc1cc(-c2nccc3cc(OC)c(OC)cc23)ccc1O
TGI [1]: > 100 µM | TGI [2]: 96.1 µM | TGI [4]: > 100 µM | TGI [5]: > 100 µM | TGI [7]: > 100 µM | TGI [8]: > 100 µM | TGI [10]: > 100 µM | TGI [11]: > 100 µM | TGI [12]: > 100 µM | TGI [14]: > 100 µM | TGI [16]: > 100 µM | TGI [17]: > 100 µM | TGI [18]: > 100 µM | TGI [20]: > 100 µM | TGI [22]: > 100 µM | TGI [23]: > 100 µM | TGI [24]: > 100 µM | TGI [25]: > 100 µM | TGI [28]: > 100 µM | TGI [29]: > 100 µM | TGI [30]: > 100 µM | TGI [66]: > 100 µM | TGI [31]: > 100 µM | TGI [32]: > 100 µM | TGI [67]: > 100 µM | TGI [33]: > 100 µM | TGI [34]: > 100 µM | TGI [35]: > 100 µM | TGI [36]: > 100 µM | TGI [37]: > 100 µM | TGI [38]: > 100 µM | TGI [39]: > 100 µM | TGI [40]: > 100 µM | TGI [41]: > 100 µM | TGI [42]: > 100 µM | TGI [43]: > 100 µM | TGI [44]: > 100 µM | TGI [46]: > 100 µM | TGI [47]: > 100 µM | TGI [48]: > 100 µM | TGI [49]: 67.4 µM | TGI [50]: 78.6 µM | TGI [51]: > 100 µM | TGI [52]: > 100 µM | TGI [55]: > 100 µM | TGI [56]: > 100 µM | TGI [68]: > 100 µM | TGI [57]: 91.8 µM | TGI [58]: > 100 µM | TGI [59]: > 100 µM | TGI [60]: > 100 µM | TGI [61]: > 100 µM | TGI [62]: > 100 µM | TGI [63]: > 100 µM | TGI [65]: > 100 µM

N#Cc1ccc(Cc2ccccn2)cc1Cl
TGI [1]: > 100 µM | TGI [4]: > 100 µM | TGI [7]: > 100 µM | TGI [8]: > 100 µM | TGI [9]: > 100 µM | TGI [10]: > 100 µM | TGI [11]: > 100 µM | TGI [12]: > 100 µM | TGI [14]: > 100 µM | TGI [16]: > 100 µM | TGI [17]: > 100 µM | TGI [20]: > 100 µM | TGI [22]: > 100 µM | TGI [23]: > 100 µM | TGI [24]: > 100 µM | TGI [25]: > 100 µM | TGI [29]: > 100 µM | TGI [30]: > 100 µM | TGI [66]: > 100 µM | TGI [31]: > 100 µM | TGI [32]: > 100 µM | TGI [67]: > 100 µM | TGI [33]: > 100 µM | TGI [34]: > 100 µM | TGI [35]: > 100 µM | TGI [36]: > 100 µM | TGI [37]: > 100 µM | TGI [38]: > 100 µM | TGI [39]: > 100 µM | TGI [40]: > 100 µM | TGI [42]: > 100 µM | TGI [43]: > 100 µM | TGI [45]: > 100 µM | TGI [46]: > 100 µM | TGI [47]: > 100 µM | TGI [48]: > 100 µM | TGI [49]: > 100 µM | TGI [51]: > 100 µM | TGI [55]: > 100 µM | TGI [56]: > 100 µM | TGI [68]: > 100 µM | TGI [57]: > 100 µM | TGI [58]: > 100 µM | TGI [59]: > 100 µM | TGI [60]: > 100 µM | TGI [62]: > 100 µM | TGI [63]: > 100 µM | TGI [64]: > 100 µM | TGI [65]: > 100 µM
